Experiments:
[1] = test system: uveal melanoma cell lines 92-1 or MP41; experiment: Growth inhibition of uveal melanoma cell lines, compound 67 compared with clinical PKC and MEK inhibitors, 3 days, Cell-titer glo; type: cell-based; conditions: vs LXS196 and Selumetinib
[2] = test system: uveal melanoma cell lines (92-1, MP41, MP38, MP46); experiment: Growth of uveal melanoma cell lines with compound 67, 3 days, Cell-titer glo; type: cell-based; conditions: 0 to 10 micromolar
[3] = molecular target: T1, BRM (Homo sapiens, UniProt P51531); experiment: ATPase catalytic activity of BRM, ADP-Glo in vitro biochemical assay; conditions: 30 nM BRM, 400 μM ATP, read-out: BRM IP50
T1 construct: made in house; host or cells: High Five insect cells
T1 sequence (P51531 whole entry): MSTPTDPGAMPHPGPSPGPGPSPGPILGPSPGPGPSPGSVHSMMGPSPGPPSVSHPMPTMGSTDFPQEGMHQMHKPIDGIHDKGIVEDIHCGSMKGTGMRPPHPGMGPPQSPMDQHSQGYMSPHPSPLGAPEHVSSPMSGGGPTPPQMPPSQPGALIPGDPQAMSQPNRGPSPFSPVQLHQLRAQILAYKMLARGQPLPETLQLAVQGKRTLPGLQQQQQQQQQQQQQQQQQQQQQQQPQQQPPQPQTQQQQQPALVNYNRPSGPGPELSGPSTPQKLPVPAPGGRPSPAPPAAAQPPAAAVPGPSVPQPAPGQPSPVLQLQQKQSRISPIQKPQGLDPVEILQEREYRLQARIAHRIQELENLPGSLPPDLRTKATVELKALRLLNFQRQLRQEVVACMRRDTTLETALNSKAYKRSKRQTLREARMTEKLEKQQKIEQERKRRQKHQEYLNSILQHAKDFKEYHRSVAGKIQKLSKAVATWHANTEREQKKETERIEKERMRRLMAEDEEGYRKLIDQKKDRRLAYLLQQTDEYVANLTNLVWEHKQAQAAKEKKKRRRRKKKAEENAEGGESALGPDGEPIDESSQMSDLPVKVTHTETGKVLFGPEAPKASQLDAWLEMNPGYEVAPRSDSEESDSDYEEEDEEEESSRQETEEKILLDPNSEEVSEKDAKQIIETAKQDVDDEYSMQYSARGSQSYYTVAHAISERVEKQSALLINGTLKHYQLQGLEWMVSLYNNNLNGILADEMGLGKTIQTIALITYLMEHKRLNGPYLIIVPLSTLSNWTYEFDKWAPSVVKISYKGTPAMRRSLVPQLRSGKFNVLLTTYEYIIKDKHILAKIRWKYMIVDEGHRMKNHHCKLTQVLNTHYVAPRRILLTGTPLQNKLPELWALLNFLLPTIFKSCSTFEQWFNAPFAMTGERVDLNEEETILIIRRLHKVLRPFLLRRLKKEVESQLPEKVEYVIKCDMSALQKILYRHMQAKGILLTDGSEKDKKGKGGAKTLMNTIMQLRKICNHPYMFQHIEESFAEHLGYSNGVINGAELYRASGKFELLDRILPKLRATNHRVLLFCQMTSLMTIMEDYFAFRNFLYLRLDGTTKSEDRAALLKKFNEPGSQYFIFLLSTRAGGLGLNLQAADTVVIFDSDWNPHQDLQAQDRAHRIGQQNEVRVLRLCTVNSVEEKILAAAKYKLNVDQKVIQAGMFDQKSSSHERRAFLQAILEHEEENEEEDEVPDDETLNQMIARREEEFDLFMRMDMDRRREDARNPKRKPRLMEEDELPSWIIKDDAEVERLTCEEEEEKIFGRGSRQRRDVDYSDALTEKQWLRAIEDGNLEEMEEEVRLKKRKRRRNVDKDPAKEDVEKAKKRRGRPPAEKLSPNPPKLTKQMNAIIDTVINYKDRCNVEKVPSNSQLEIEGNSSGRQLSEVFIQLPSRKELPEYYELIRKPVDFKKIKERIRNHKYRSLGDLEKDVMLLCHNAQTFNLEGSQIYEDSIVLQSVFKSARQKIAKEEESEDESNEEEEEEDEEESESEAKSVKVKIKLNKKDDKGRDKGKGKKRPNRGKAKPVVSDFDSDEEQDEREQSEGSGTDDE

[4] = molecular target: T2, BRG-1 (Homo sapiens, UniProt P51532); experiment: ATPase catalytic activity of BRG-1, ADP-Glo in vitro biochemical assay; conditions: 30 nM BRG-1, 400 μM ATP, read-out: BRG1 IP50
T2 construct: made in house; host or cells: High Five insect cells
T2 sequence (P51532 whole entry): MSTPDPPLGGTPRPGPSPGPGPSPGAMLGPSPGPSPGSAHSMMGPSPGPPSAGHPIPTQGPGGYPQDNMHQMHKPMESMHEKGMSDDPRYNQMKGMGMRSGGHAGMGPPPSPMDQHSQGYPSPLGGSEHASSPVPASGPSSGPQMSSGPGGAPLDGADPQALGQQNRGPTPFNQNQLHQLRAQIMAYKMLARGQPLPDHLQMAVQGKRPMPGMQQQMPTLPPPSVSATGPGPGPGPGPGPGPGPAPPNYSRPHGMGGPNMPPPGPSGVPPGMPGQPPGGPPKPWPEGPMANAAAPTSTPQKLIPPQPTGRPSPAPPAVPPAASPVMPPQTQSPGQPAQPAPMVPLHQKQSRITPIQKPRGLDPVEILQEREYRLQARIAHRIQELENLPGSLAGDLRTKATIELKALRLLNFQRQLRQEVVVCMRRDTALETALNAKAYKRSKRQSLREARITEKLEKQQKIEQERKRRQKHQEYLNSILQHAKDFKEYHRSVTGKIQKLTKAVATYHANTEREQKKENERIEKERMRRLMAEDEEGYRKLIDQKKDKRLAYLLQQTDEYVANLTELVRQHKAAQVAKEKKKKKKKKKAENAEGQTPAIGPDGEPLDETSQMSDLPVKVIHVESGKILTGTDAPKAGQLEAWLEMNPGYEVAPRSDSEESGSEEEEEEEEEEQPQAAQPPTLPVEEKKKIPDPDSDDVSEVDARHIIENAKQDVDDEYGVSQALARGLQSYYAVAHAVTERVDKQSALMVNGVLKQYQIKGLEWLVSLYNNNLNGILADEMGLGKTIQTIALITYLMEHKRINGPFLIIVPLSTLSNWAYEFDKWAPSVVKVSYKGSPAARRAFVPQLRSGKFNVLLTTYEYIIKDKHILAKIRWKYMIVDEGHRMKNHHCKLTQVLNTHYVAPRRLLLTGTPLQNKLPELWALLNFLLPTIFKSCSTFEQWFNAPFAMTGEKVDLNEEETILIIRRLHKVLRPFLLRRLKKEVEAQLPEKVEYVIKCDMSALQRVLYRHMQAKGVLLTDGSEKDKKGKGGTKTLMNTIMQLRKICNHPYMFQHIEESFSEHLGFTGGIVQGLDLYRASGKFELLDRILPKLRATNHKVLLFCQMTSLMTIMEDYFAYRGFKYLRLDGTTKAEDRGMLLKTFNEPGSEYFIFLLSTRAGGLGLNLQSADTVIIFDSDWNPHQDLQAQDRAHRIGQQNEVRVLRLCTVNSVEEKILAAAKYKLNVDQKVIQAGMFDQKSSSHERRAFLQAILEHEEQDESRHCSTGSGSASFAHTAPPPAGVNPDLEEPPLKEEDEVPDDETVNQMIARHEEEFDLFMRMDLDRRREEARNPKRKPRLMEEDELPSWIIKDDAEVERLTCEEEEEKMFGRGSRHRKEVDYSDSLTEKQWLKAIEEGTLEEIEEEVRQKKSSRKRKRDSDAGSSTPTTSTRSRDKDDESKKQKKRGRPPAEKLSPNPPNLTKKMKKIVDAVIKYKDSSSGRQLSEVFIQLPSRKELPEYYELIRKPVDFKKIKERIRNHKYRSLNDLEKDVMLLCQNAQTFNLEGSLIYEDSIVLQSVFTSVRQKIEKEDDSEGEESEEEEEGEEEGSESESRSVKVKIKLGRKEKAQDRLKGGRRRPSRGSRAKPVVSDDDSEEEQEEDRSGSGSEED

[5] = test system: several cancer cell lines; experiment: Inhibition of cell proliferation of several cancer cell lines; type: cell-based
[6] = test system: uveal melanoma cell lines 92-1 or MP41; experiment: Growth inhibition of uveal melanoma cell lines, Compound A compared with clinical PKC and MEK inhibitors, 3 days, Cell-titer glo; type: cell-based; conditions: vs LXS196 and Selumetinib
[7] = test system: uveal melanoma cell line 92-1; experiment: Inhibition of cell proliferation of uveal melanoma cell line 92-1; type: cell-based
[8] = test system: uveal melanoma cell line MP41; experiment: Inhibition of cell proliferation of uveal melanoma cell line MP41; type: cell-based
[9] = test system: parental and PKC-inhibitor refractory uveal melanoma cell lines; experiment: Inhibition of cell proliferation of parental and PKC-inhibitor refractory uveal melanoma cell lines; type: cell-based
[10] = test system: MP41 uveal melanoma cells, parental and PKCi-resistant; experiment: 7-day growth inhibition assay in parental and PKC inhibitor-resistant MP41 cells; type: cell-based; conditions: 7-day assay
[11] = 92-1 or MP41, 3 days, 0 to 10 micromolar

| Structure (SMILES) | IC50 [3] | IC50 [4] | other results |
| --- | --- | --- | --- |
| CSCC[C@H](NC(=O)c1ccn(S(C)(=O)=O)c1)C(=O)Nc1nc(-c2cccc(-c3ccncc3)c2)cs1 [Compound 67, (S)-1-(methylsulfonyl)-N-(4-(methylthio)-1-oxo-1-((4-(3-(pyridin-4-yl)phenyl)thiazol-2-yl)amino)butan-2-yl)-1H-pyrrole-3-carboxamide] |  |  | growth inhibition of uveal melanoma cells compared with clinical PKC and MEK inhibitors (FIG. 6A, 6B) [1, 11]: more potent effects on growth inhibition; onset of growth inhibition compared with clinical PKC and MEK inhibitors ([1]; 92-1 or MP41): faster onset of growth inhibition; growth inhibition in uveal melanoma cell lines (FIG. 5) [2]: potent growth inhibition |
| CN1CCOc2ccc(-c3csc(NC(=O)CNC(=O)c4ccn(C5(C#N)CC5)n4)n3)cc21 [Compound 811] | > 10 nM | > 100 nM |  |
| COC[C@H](NC(=O)c1ccn(C2(C#N)CC2)n1)C(=O)Nc1nc(-c2ccc3ccn(C)c(=O)c3c2)cs1 [Compound 812] | > 100 nM | > 100 nM |  |
| Cn1ccc(-c2cccc(-c3csc(NC(=O)CNC(=O)c4ccn(C5(C#N)CC5)n4)n3)c2)n1 [Compound 813] | > 10 nM | > 100 nM |  |
| N#CC1(n2ccc(C(=O)NCC(=O)Nc3nc(-c4cccc(N5CCC5)c4)cs3)n2)CC1 [Compound 814] | > 10 nM | > 100 nM |  |
| COC[C@H](NC(=O)c1ccn(C2(C#N)CC2)n1)C(=O)Nc1nc(-c2cccc(-c3ccn(C)n3)c2)cs1 [Compound 815] | > 100 nM | > 100 nM |  |
| CSCC[C@H](NC(=O)c1ccc(N)cc1)C(=O)Nc1nc(-c2cccc(-c3ccncc3)c2)cs1 [Compound A] |  |  | inhibition of cell proliferation [5]: inhibition of cell proliferation; growth inhibition of uveal melanoma cells compared with clinical PKC and MEK inhibitors (FIG. 2A, 2B) [6, 11]: comparable growth inhibition; onset of inhibition compared with clinical PKC and MEK inhibitors ([6]; 92-1 or MP41): faster onset of inhibition; inhibition of cell proliferation [7]: inhibition of cell proliferation; inhibition of cell proliferation [8]: inhibition of cell proliferation |
| CC1(N)CCN(c2cccnc2NC(=O)c2nc(-c3ncccc3C(F)(F)F)cnc2N)CC1 [LXS196, reference compound] |  |  | inhibition of cell proliferation [9]: inhibition of cell proliferation; inhibition of cell proliferation [7]: inhibition of cell proliferation; inhibition of cell proliferation [8]: inhibition of cell proliferation; growth tolerance of PKCi-resistant cells relative to parental MP41 cell line (FIG. 7A) [10]: could tolerate growth at higher concentrations |

More lines, main results first:

| IC50 [3] | IC50 [4] | Structure (SMILES) | other results |
| --- | --- | --- | --- |
| > 10 nM | > 10 nM | COC[C@H](NC(=O)c1ccn(C(C)(C)C#N)n1)C(=O)Nc1nc(-c2ccc3ccn(C)c(=O)c3c2)cs1 [Compound 816] |  |
| > 10 nM | > 10 nM | COC[C@H](NC(=O)c1ccn(C(C)(C)C#N)n1)C(=O)Nc1nc(-c2cc(C)cc(N3C[C@@H](C)O[C@@H](C)C3)n2)cs1 [Compound 817] |  |
| > 10 nM | > 10 nM | COC[C@H](NC(=O)c1cn(C(C)(C)C#N)cn1)C(=O)Nc1nc(-c2cc(C)cc(N3C[C@@H](C)O[C@@H](C)C3)n2)cs1 [Compound 818] |  |
| > 10 nM | > 10 nM | C[C@@H]1CN(c2cccc(-c3csc(NC(=O)CNC(=O)c4cn(C(C)(C)C#N)cn4)n3)n2)C[C@H](C)O1 [Compound 819] |  |
| > 100 nM | > 100 nM | CC(C)(C)c1cnc(C(=O)NCC(=O)Nc2nc(-c3cccc(N4CCC4)c3)cs2)s1 [Compound 820] |  |
| > 10 nM | > 10 nM | COC[C@H](NC(=O)c1ncc(C(C)(C)C)o1)C(=O)Nc1nc(-c2cccc(-c3cnn(C)n3)c2)cs1 [Compound 821] |  |
| > 10 nM | > 100 nM | C[C@@H]1CN(c2cccc(-c3csc(NC(=O)CNC(=O)c4ncc(C(C)(C)C)s4)n3)n2)C[C@H](C)O1 [Compound 822] |  |
| < 10 nM | > 10 nM | C[C@@H]1CN(c2cccc(-c3csc(NC(=O)CNC(=O)c4ncc(C(C)(C)C)o4)n3)c2)C[C@H](C)O1 [Compound 823] |  |
| > 100 nM | > 100 nM | COc1cnc(C(=O)NCC(=O)Nc2nc(-c3cccc(N4C[C@@H](C)O[C@@H](C)C4)n3)cs2)o1 [Compound 824] |  |
| < 10 nM | > 10 nM | COC[C@H](NC(=O)c1ncc(C(C)(C)C)o1)C(=O)Nc1nc(-c2cc(F)cc(-c3cnn(C)n3)c2)cs1 [Compound 825] |  |
| > 10 nM | > 10 nM | C[C@@H]1CN(c2cccc(-c3csc(NC(=O)CNC(=O)c4ncc(C5(C)COC5)o4)n3)n2)C[C@H](C)O1 [Compound 826] |  |
| < 10 nM | > 10 nM | C[C@@H]1CN(c2cccc(-c3csc(NC(=O)CNC(=O)c4ncc(C(C)(C)C)o4)n3)n2)C[C@H](C)O1 [Compound 827] |  |
